In ChEMBL document CHEMBL1137376 (J Med Chem, 2006) one finds Ki and Activity data, which are given here for 4 compounds.

By Ki is commonly meant a measure of affinity in units of concentration, obtained from inhibition or displacement. Read a low Ki as a stronger hold on the target.

Each structure is given as a SMILES string. Active and inactive are the calls of the source. The rule behind the calls is not given here. Non-standard residues stand in square brackets, D forms with d. Residues, ends and D or L forms follow the SMILES beside them. Phe(4-NH2) = Nc1ccc(C[C@H](N)C(=O)O)cc1

Experiment [1] deals with T1, Angiotensin II receptor (AT-1) type-1 (Rattus norvegicus, UniProt P29089+P25095).
T1 sequence (P29089 whole entry): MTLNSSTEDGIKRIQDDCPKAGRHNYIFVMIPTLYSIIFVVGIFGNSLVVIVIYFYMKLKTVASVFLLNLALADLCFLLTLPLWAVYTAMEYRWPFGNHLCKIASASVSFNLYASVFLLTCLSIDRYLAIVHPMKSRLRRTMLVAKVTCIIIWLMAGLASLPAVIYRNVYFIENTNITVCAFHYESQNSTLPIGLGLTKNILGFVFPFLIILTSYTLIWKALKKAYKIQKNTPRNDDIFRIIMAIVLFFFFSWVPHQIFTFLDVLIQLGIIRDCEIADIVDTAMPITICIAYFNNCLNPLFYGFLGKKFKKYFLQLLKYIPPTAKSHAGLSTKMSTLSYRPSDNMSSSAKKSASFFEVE
T1 sequence (P25095 whole entry): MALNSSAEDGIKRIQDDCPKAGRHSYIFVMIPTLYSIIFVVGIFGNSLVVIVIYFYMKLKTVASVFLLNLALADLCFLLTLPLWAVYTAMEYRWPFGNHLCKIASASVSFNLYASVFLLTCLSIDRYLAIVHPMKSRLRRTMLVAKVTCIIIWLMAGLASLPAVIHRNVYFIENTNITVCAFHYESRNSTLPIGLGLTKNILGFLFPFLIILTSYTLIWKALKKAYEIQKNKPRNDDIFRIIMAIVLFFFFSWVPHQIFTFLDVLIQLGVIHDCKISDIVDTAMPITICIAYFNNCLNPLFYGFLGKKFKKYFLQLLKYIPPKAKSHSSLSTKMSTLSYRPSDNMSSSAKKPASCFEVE
Description: Displacement of [125I]Ang2 from AT1 receptor in rat liver membrane. The class given is cell membranes. In general terms: In a radioligand displacement assay an active substance lowers the binding of a labelled ligand.

Experiment [2] deals with T2, Type-1 angiotensin II receptor (Oryctolagus cuniculus) (UniProt P34976).
T2 sequence (whole entry): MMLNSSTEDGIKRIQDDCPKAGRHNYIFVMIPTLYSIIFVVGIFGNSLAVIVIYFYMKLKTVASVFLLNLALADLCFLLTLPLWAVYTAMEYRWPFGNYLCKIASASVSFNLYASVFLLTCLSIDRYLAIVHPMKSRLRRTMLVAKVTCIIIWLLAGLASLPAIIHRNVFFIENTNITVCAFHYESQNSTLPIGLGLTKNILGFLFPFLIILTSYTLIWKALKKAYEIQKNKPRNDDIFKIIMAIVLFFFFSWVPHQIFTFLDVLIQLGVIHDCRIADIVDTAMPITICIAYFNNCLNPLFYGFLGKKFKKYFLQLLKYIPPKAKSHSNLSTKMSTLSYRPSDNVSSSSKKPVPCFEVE
Description: Agonist activity at AT1 receptor measured as contraction of rabbit thoracic aorta at 3.0 nM to 3.0 uM. Type of experiment: functional, tissue-based.

`CC[C@H](C)[C@@H]1Nc2c(Cc3ccc(O)cc3)cc(NC(=O)[C@@H](NC(=O)[C@H](CCCN=C(N)N)NC(=O)[C@@H](N)CC(=O)O)C(C)C)cc2CN(CC(=O)N[C@@H](Cc2c[nH]cn2)C(=O)N2CCC[C@H]2C(=O)N[C@@H](Cc2ccccc2)C(=O)O)C1=O`: the Ki in experiment [1] was 14.9 nM. Besides, in experiment [2], the outcome was inactive.

With `CC[C@H](C)[C@H](NC(=O)[C@H](Cc1ccc(O)cc1)NC(=O)[C@@H](NC(=O)[C@H](CCCN=C(N)N)NC(=O)[C@@H](N)CC(=O)O)C(C)C)C(=O)N[C@@H](Cc1ccc(N)cc1)C(=O)N1CCC[C@H]1C(=O)N[C@@H](Cc1ccccc1)C(=O)O` (H-DRVYI[Phe(4-NH2)]PF-OH), in experiment [1], the Ki was above 10000 nM.

With `CC[C@H](C)[C@@H]1Nc2c(Cc3ccc(O)cc3)cc(NC(=O)[C@H](CCCN=C(N)N)NC(=O)[C@@H](N)CC(=O)O)cc2CN(CC(=O)N[C@@H](Cc2c[nH]cn2)C(=O)N2CCC[C@H]2C(=O)N[C@@H](Cc2ccccc2)C(=O)O)C1=O`, the Ki in experiment [1] is given as 1668 nM.

In experiment [1], `CC[C@H](C)[C@@H]1Nc2c(Cc3ccc(O)cc3)cc(NC(=O)[C@H](CCCN=C(N)N)NC(=O)[C@@H](N)CC(=O)O)cc2CN(CC(=O)N2CCC[C@H]2C(=O)N[C@@H](Cc2ccccc2)C(=O)O)C1=O` had a Ki of 2108 nM. The Ki values of the last two compounds are within 1.5-fold of each other.
